As usually defined, the MIC is the least concentration at which growth counts as inhibited. A low value points to inhibition by little substance. A word on the Cmax: it is the peak of the concentration-time curve. As a reminder, the Tmax is the time at which the peak concentration occurs. One may read the half-life as how long it takes for the measured level to halve. A higher half-life goes with slow loss. Usually IC50 stands for the midpoint of a concentration-inhibition curve.

Data on 7 molecules can be found in paper PMC8849072, “Sudapyridine (WX-081), a Novel Compound against Mycobacterium tuberculosis” (Microbiology Spectrum, 2022).

For data set [1] the following is noted: cited from earlier work.
The test system of data set [2] is M. tuberculosis H37Rv. In words: MBC determination (CFU-based). The following applies: 7 days incubation, 3 log10 CFU decrease.
In data set [3] the test system is M. tuberculosis susceptible strain 14242. Put plainly: MBC determination (CFU-based). The note with it: 7 days incubation, 3 log10 CFU decrease.
Data set [4] relates to M. tuberculosis H37Rv. In words: MIC by microplate alamarBlue assay (MABA). The note with it: for MIC: Mycobacterium tuberculosis, H37RV. It counts as cell-based, Mycobacterium tuberculosis. (In general: The colour change of resazurin is a common sign of viable cells or microbes.)
Data set [5] has as its system M. tuberculosis susceptible strain 14242. In words: MIC by microplate alamarBlue assay (MABA). It counts as cell-based, Mycobacterium tuberculosis. The note with it: for MIC: Mycobacterium tuberculosis.
The nature of data set [6]: Pharmacokinetic study in mice. Type of data set: in vivo, BALB/c mice. The following applies: Mice; for AUC(0-inf): read-out: AUC0-inf; for AUC(0-t): read-out: AUC0-last; for half-life: plasma; for At 96 h lung/plasma: lung: lung exposure at 96 h (first number of the pair); for At 96 h lung/plasma: plasma: plasma exposure at 96 h (second number of the pair). On the procedure:
(§1) The BALB/c mice, rats, and beagle dogs were used in the PK study and fasted overnight before dosing. Animal doses were administered in two ways. […] Plasma samples were collected from three animals at each time point. Plasma concentrations were determined by liquid chromatography-tandem mass spectrometry (LC-MS/MS). The bioanalytical method by LC-MS/MS for pharmacokinetic (PK) studies in animal and toxicokinetic (TK) in tox studies have been validated. The total area under the concentration-time curve (AUC0-inf), the elimination half-time (t1/2), the peak concentration (Cmax), and the time to reach peak concentration (Tmax) of samples were determined directly from the experimental data using WinNonlin V6.2.1.

Data set [7] relates to M. tuberculosis susceptible strain 14480. Put plainly: MIC by microplate alamarBlue assay (MABA). It counts as cell-based, Mycobacterium tuberculosis. The note with it: for MIC: Mycobacterium tuberculosis.
Data set [8] deals with M. tuberculosis susceptible strain 14280. Put plainly: MIC by microplate alamarBlue assay (MABA). It counts as cell-based, Mycobacterium tuberculosis. The following applies: for MIC: Mycobacterium tuberculosis.
The test system of data set [9] is M. tuberculosis susceptible strain 14241. Put plainly: MIC by microplate alamarBlue assay (MABA). It counts as cell-based, Mycobacterium tuberculosis. The note with it: for MIC: Mycobacterium tuberculosis.
Data set [10] deals with M. tuberculosis susceptible strain 14286. In words: MIC by microplate alamarBlue assay (MABA). Type of data set: cell-based, Mycobacterium tuberculosis. The note with it: for MIC: Mycobacterium tuberculosis.
A short description of data set [11]: Pharmacokinetic study in rats. It counts as in vivo, rat. The following applies: Rat; for At 96 h lung/plasma: lung: lung exposure at 96 h (first number of the pair); for At 96 h lung/plasma: plasma: plasma exposure at 96 h (second number of the pair); for AUC(0-inf): read-out: AUC0-inf; for AUC(0-t): read-out: AUC0-last; for half-life: plasma. On the procedure: as §1

Data set [12] concerns the target T1, human ether-á-go-go-related (hERG) ion channel (Homo sapiens, UniProt Q12809).
T1 construct: expressed in transfected cells; host or cells: hERG-CHO cell (CHO cells expressing hERG)
Put plainly: hERG manual patch-clamp assay in hERG-CHO cell. Type of data set: cell-based. Background: hERG is a cardiac potassium channel; its block is linked to QT prolongation.
Procedure: A human ether-á-go-go-related (hERG) ion channel in vitro assay was performed in Shanghai Institute of Materia Medica, Shanghai, for the evaluation of cardiac liability testing. The assay was a manual patch-clamp method using electrophysiology in an hERG-CHO cell.

Data set [13] can be described thus: 14-day repeated oral dose toxicity and toxicokinetic head-to-head study in beagle dogs. It counts as in vivo, beagle dog. The note with it: 14 days; for ECG: QT interval / cTnI: 200 mg/kg; for cTnI: one of three males, all others BLQ.
Setting [14] is: BALB/c, mouse, in vivo, Iv. 1.0 mg/kg.
Where [15] appears, read: BALB/c, mouse, in vivo, Po. 6.25 mg/kg.
Setting [16] is: beagle dogs, 200 mg/kg oral, listed as bedaquiline fumarate.

≈ marks a conversion by molar mass, not a printed value.

T1 sequence (Q12809 whole entry): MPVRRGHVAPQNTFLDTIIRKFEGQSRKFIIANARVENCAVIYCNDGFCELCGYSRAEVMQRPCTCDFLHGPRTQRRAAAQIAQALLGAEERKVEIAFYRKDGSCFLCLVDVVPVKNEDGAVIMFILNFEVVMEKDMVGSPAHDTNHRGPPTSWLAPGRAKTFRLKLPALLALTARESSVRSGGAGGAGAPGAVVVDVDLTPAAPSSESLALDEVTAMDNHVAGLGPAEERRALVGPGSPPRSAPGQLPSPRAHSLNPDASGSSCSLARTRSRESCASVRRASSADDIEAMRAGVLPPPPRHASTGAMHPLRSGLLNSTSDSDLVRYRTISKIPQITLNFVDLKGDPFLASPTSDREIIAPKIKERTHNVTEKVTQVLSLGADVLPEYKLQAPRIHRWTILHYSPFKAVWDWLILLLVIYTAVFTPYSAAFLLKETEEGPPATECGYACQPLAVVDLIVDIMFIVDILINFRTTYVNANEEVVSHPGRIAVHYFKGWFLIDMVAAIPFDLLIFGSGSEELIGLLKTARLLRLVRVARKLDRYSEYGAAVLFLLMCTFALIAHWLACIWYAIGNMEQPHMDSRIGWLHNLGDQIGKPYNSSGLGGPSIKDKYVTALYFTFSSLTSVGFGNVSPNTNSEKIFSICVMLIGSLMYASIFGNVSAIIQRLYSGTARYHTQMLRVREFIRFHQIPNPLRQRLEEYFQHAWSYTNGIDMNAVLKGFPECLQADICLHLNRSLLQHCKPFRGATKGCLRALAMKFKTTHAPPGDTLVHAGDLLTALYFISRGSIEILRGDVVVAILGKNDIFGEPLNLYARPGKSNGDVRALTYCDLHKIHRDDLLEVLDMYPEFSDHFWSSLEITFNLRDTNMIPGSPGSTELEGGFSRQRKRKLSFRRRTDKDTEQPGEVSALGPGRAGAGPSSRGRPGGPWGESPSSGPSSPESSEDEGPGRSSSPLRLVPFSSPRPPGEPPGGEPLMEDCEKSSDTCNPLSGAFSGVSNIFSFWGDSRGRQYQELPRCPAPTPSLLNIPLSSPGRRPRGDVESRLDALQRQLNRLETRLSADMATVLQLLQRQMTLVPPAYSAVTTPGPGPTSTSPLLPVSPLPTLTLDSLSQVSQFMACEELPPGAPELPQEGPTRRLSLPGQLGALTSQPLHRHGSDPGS

For the molecule `COc1nc2ccc(Br)cc2cc1[C@@H](c1ccccc1)[C@@](O)(CCN(C)C)c1cccc2ccccc12` [BDQ, bedaquiline], the elimination half-life in data set [1] was 5.5 months. The MBCs (in the data set on M. tuberculosis H37Rv [2]; in data set [3]) was 0.156 µg/mL each time. Also, the minimal inhibitory concentration (MIC) in the data set on M. tuberculosis H37Rv [4] was determined as 0.012 µg/mL (≈ 0.0216 µM); in [5], 0.031 µg/mL (≈ 0.0558 µM); in [7] it was 0.037 µg/mL (≈ 0.0666 µM); in [8], 0.053 µg/mL (≈ 0.0954 µM); in data set [9] it was 0.029 µg/mL (≈ 0.0522 µM); in data set [10], 0.043 µg/mL (≈ 0.0774 µM). Further, the AUC(0-inf) in data set [6] (setting [14]) stood at 2160 ng·h/mL; in data set [6] (setting [15]), 6360 ng·h/mL; in data set [11] (in vivo, Iv. 1.0 mg/kg) it was 1930 ng·h/mL; in [11] (in vivo, Po. 5.0 mg/kg), 2680 ng·h/mL. The AUC(0-t) was found to be 2100 ng·h/mL in [6] (setting [14]); 6040 ng·h/mL in data set [6] (setting [15]); 1830 ng·h/mL in data set [11] (in vivo, Iv. 1.0 mg/kg); 2610 ng·h/mL in data set [11] (in vivo, Po. 5.0 mg/kg). Moreover, the Vd in data set [6] (BALB/c, mouse, in vivo, Iv. 1.0 mg/kg, read-out: Vdss) amounted to 6.21 L/kg; in data set [11] (in vivo, Iv. 1.0 mg/kg, read-out: Vdss), 10.3 L/kg. Also, the maximum concentration (Cmax) in data set [6] (BALB/c, mouse, in vivo, Po. 6.25 mg/kg, read-out: Cmax) amounted to 608 ng/mL; in data set [11] (in vivo, Po. 5.0 mg/kg, read-out: Cmax) it was 354 ng/mL. The bioavailability was 47.1% in [6] (BALB/c, mouse, in vivo, Po. 6.25 mg/kg, read-out: F) and 27.7% in data set [11] (in vivo, Po. 5.0 mg/kg, read-out: F). Also, the time of peak concentration (Tmax) is 5.33 h in data set [6] (BALB/c, mouse, in vivo, Po. 6.25 mg/kg, read-out: Tmax) and 0.83 h in data set [11] (in vivo, Po. 5.0 mg/kg, read-out: Tmax). Besides, the half-life in data set [6] (BALB/c, mouse, Iv. 1.0 mg/kg) was 21.3 h; in data set [6] (BALB/c, mouse, Po. 6.25 mg/kg), 47.6 h; in data set [11] (Iv. 1.0 mg/kg), 37.6 h; in data set [11] (Po. 5.0 mg/kg) it was 29.3 h. Also, the “At 96 h lung/plasma: lung” value in data set [6] (Iv. 1.0 mg/kg) was determined as 27.1; in [6] (Po. 6.25 mg/kg), 135; in data set [11] (Iv. 1.0 mg/kg) it was 62.9; in data set [11] (Po. 5.0 mg/kg), 58.8. Also, the “At 96 h lung/plasma: plasma” value in data set [6] (Iv. 1.0 mg/kg) stood at 1.31; in [6] (Po. 6.25 mg/kg), 4.56; in data set [11] (Iv. 1.0 mg/kg) it was 1.89; in data set [11] (Po. 5.0 mg/kg), 1.52.

`CNCC[C@@](O)(c1cccc2ccccc12)[C@H](c1ccccc1)c1cc2cc(Br)ccc2nc1OC` [BDQ-M2]: in data set [12] (metabolites), the IC50 turned out to be 1.73 µM.

Regarding `COc1nc2ccc(Br)cc2cc1[C@@H](c1ccccc1)[C@@](O)(CCN(C)C)c1cccc2ccccc12.O=C(O)/C=C/C(=O)O` [Bedaquiline fumarate, bedaquiline fumarate], in data set [13] (200 mg/kg oral once daily, male and female dogs), the mortality and moribundity entry is “did not result in mortality and moribundity”. Moreover, in data set [13] (beagle dogs, 200 mg/kg oral), the “ECG: HR” value was “An increased incidence of first- and second-degree atrioventricular block”; the “qualitative ECG changes associated with oral administration” value is “increased incidence of first and second-degree atrioventricular (AV) block”; the “ECG: QT interval” value was “Significant QT interval prolongation”; the cTnI is recorded as 440 (1/3 male) pg/mL. In data set [13] (setting [16]), the “ECG: QT interval” value is listed as “significant QTc interval prolongation” and the cTnI is listed as 440 pg/mL. Further, the IC50 in [12] (parent compound) is more than 30 µM.

Turning to `NNC(=O)c1ccncc1` [INH, isoniazid], the MIC in the data set on M. tuberculosis H37Rv [4] is 0.031 µg/mL (≈ 0.226 µM); in data set [5], 0.028 µg/mL (≈ 0.204 µM); in data set [7] it was less than 0.02 µg/mL; in data set [8] it was 0.024 µg/mL (≈ 0.175 µM); in [9] it was 0.034 µg/mL (≈ 0.248 µM); in data set [10], 0.03 µg/mL (≈ 0.219 µM).

Regarding `NC[C@H]1O[C@H](O[C@H]2[C@H](O)[C@@H](O[C@H]3O[C@H](CO)[C@@H](O)[C@H](N)[C@H]3O)[C@H](N)C[C@@H]2N)[C@H](O)[C@@H](O)[C@@H]1O` [KM, kanamycin], the MICs in the data set on M. tuberculosis H37Rv [4] (H37Rv) stood at 0.730 µg/mL; in data set [5], 1.146 µg/mL; in data set [7] it was 1.907 µg/mL; in data set [8], 1.219 µg/mL; in [9] it was 2.417 µg/mL; in data set [10] it was 1.154 µg/mL.

Consider `COc1c(N2C[C@@H]3CCCN[C@@H]3C2)c(F)cc2c(=O)c(C(=O)O)cn(C3CC3)c12` [MFX, moxifloxacin], for which the minimal inhibitory concentration (MIC) against M. tuberculosis H37Rv [4] is 0.045 µg/mL (≈ 0.112 µM); in data set [5], 0.037 µg/mL (≈ 0.0922 µM); in data set [8], 0.035 µg/mL (≈ 0.0872 µM); in data set [9], 0.122 µg/mL (≈ 0.304 µM); in [10], 0.039 µg/mL (≈ 0.0972 µM).

Turning to `CO[C@H]1/C=C/O[C@@]2(C)Oc3c(C)c(O)c4c(O)c(c(/C=N/N5CCN(C)CC5)c(O)c4c3C2=O)NC(=O)/C(C)=C\C=C\[C@H](C)[C@H](O)[C@@H](C)[C@@H](O)[C@@H](C)[C@H](OC(C)=O)[C@@H]1C` [RFP, rifampicin], the MIC against M. tuberculosis H37Rv [4] was 0.014 µg/mL (≈ 0.017 µM); in data set [5], 0.066 µg/mL (≈ 0.0802 µM); in data set [7], 0.046 µg/mL (≈ 0.0559 µM); in data set [8], 0.057 µg/mL (≈ 0.0693 µM); in [9] it was 0.035 µg/mL (≈ 0.0425 µM); in [10] it was less than 0.02 µg/mL.
